# Activity calls are given as the source filed them. The calls are words filed in the database; no cut-off is given here.
# Assays:
# [1] = system: Quadruplex DNA; test: Binding affinity to FAM/TAMRA-labelled parallel KRAS G4 DNA (unknown origin) assessed as thermal stabilization by measuring change in melting temperature at 2 uM in the presence of 100 equivalents of double stranded DNA by FRET competition assay; type: nucleic-acid assay
# [2] = system: Quadruplex DNA; test: Binding affinity to FAM/TAMRA-labelled parallel c-MYC Pu24T G4 DNA (unknown origin) assessed as thermal stabilization by measuring change in melting temperature at 2 uM in the presence of 100 equivalents of double stranded DNA by FRET competition assay; type: nucleic-acid assay
# [3] = system: Quadruplex DNA; test: Binding affinity to FAM/TAMRA-labelled parallel KRAS G4 DNA (unknown origin) assessed as thermal stabilization in the presence of 15 equivalents of double stranded DNA by FRET competition assay; type: nucleic-acid assay
# [4] = system: Quadruplex DNA; test: Binding affinity to FAM/TAMRA-labelled antiparallel Bom17 G4 DNA (unknown origin) assessed as thermal stabilization at 1 to 8 uM measured at 10 to 95 degreeC by FRET analysis; type: nucleic-acid assay; conditions: dose 1-8 µM
# [5] = system: Quadruplex DNA; test: Binding affinity to FAM/TAMRA-labelled c-KIT1 G4 DNA (unknown origin) assessed as thermal stabilization at 1 to 8 uM measured at 10 to 95 degreeC by FRET analysis; type: nucleic-acid assay; conditions: dose 1-8 µM
# [6] = system: Quadruplex DNA; test: Binding affinity to FAM/TAMRA-labelled parallel c-MYC Pu24T G4 DNA (unknown origin) assessed as thermal stabilization in the presence of 15 equivalents of double stranded DNA by FRET competition assay; type: nucleic-acid assay
# [7] = Cytotoxicity against wildtype C57BL/6J mouse cancer activated fibroblast cells assessed as inhibition of cell growth incubated for 5 days by resazurin dye based fluorescence microscopic analysis; type: toxicity
# [8] = system: Quadruplex DNA; test: Binding affinity to FAM/TAMRA-labelled c-KIT2 G4 DNA (unknown origin) assessed as thermal stabilization at 1 to 8 uM measured at 10 to 95 degreeC by FRET analysis; type: nucleic-acid assay; conditions: dose 1-8 µM
# [9] = system: Quadruplex DNA; test: Binding affinity to FAM/TAMRA-labelled antiparallel TBA G4 DNA (unknown origin) assessed as thermal stabilization at 1 to 8 uM measured at 10 to 95 degreeC by FRET analysis; type: nucleic-acid assay; conditions: dose 1-8 µM
# [10] = system: Quadruplex DNA; test: Binding affinity to FAM/TAMRA-labelled parallel c-MYC Pu24T G4 DNA (unknown origin) assessed as thermal stabilization at 1 to 8 uM measured at 10 to 95 degreeC by FRET analysis; type: nucleic-acid assay; conditions: dose 1-8 µM
# [11] = target: Quadruplex DNA; test: Binding affinity to 5'-Cy5-labelled parallel c-MYC Pu24T G4 DNA (unknown origin) assessed as dissociation constant by MST analysis; type: nucleic-acid assay
# [12] = system: Quadruplex DNA; test: Binding affinity to parallel c-MYC Pu24T G4 DNA (unknown origin) assessed as thermal stabilization by measuring change in melting temperature at 5 uM measured at 1:1 DNA to ligand ratio by CD spectra analysis; type: nucleic-acid assay
# [13] = system: Quadruplex DNA; test: Binding affinity to parallel c-MYC Pu24T G4 DNA (unknown origin) assessed as change in topology at 5 uM by CD spectra analysis; type: nucleic-acid assay
# [14] = system: Quadruplex DNA; test: Binding affinity to FAM/TAMRA-labelled parallel 25ceb G4 DNA (unknown origin) assessed as thermal stabilization at 1 to 8 uM measured at 10 to 95 degreeC by FRET analysis; type: nucleic-acid assay; conditions: dose 1-8 µM
# [15] = Antitumor activity against KPC mouse pancreatic cancer organoid expressing lentiviral modified GFP co-cultured with WT C57BL/6J mouse pancreatic stellate cells expressing mKate2 assessed as inhibition of cell growth incubated for 5 days by resazurin dye based fluorescence microscopic analysis; type: functional, tissue-based; conditions: 120 h
# [16] = system: dsDNA; test: Binding affinity to double stranded DNA (unknown origin) assessed as thermal stabilization at 1 to 8 uM measured at 10 to 95 degreeC by FRET analysis; type: nucleic-acid assay; conditions: dose 1-8 µM
# [17] = system: Quadruplex DNA; test: Binding affinity to FAM/TAMRA-labelled c-MYC Pu22 G4 DNA (unknown origin) assessed as thermal stabilization at 1 to 8 uM measured at 10 to 95 degreeC by FRET analysis; type: nucleic-acid assay; conditions: dose 1-8 µM
# [18] = system: Quadruplex DNA; test: Binding affinity to FAM/TAMRA-labelled 21g G4 DNA (unknown origin) assessed as thermal stabilization at 1 to 8 uM measured at 10 to 95 degreeC by FRET analysis; type: nucleic-acid assay; conditions: dose 1-8 µM
# [19] = system: Quadruplex DNA; test: Binding affinity to FAM/TAMRA-labelled parallel KRAS G4 DNA (unknown origin) assessed as thermal stabilization at 1 to 8 uM measured at 10 to 95 degreeC by FRET analysis; type: nucleic-acid assay; conditions: dose 1-8 µM
smiles,measurement,setting,value
Cc1cc(NCCCN2CCN(C)CC2)nc(Nc2nc(C)c3ccc4c(c3n2)CCC4)n1,ΔTm,[1],10 °C
same,ΔTm,[2],7 °C
same,Activity,[3],Active
same,Activity,[4],inactive
same,Activity,[5],Active
same,Activity,[6],Active
same,IC50 at 5 days,[7],0.264 µM
same,Activity,[8],Active
same,Activity,[9],inactive
same,Activity,[10],Active
same,Kd,[11],0.265 µM
same,ΔTm,[12],5 °C
same,Activity,[13],inactive
same,Activity,[14],inactive
same,IC50,[15],0.211 µM
same,Activity,[16],inactive
same,Activity,[17],Active
same,Activity,[18],Active
Cc1cc(NCCCN2CCNCC2)nc(Nc2nc(C)c3ccc4c(c3n2)CCCC4)n1,Activity,[10],Active
same,Activity,[16],inactive
CCN(CC)c1cc(C)nc(Nc2nc(C)c3ccc4c(c3n2)CCCC4)n1,Activity,[10],Active
same,Activity,[16],inactive
Cc1cc(N2CCNCC2)nc(Nc2nc(C)c3ccc4c(c3n2)CCC4)n1,Activity,[19],Active
same,Activity,[10],Active
same,Activity,[16],inactive
Cc1cc(NCCN2CCOCC2)nc(Nc2nc(C)c3ccc4c(c3n2)CCCC4)n1,Activity,[16],inactive
Cc1cc(N2CCN(C)CC2)nc(Nc2nc(C)c3ccc4c(c3n2)CCCC4)n1,Activity,[10],Active
same,Activity,[16],inactive
Cc1cc(N2CCOCC2)nc(Nc2nc(C)c3ccc4c(c3n2)CCC4)n1,Activity,[16],inactive
Cc1cc(N2CCNCC2)nc(Nc2nc(C)c3ccc4c(c3n2)CCCC4)n1,Activity,[19],Active
same,Activity,[10],Active
same,Activity,[16],inactive
Cc1cc(N(C)C)nc(Nc2nc(C)c3ccc4c(c3n2)CCCC4)n1,Activity,[10],Active
same,Activity,[16],inactive
Cc1cc(NCCCN)nc(Nc2nc(C)c3ccc4c(c3n2)CCCC4)n1,Activity,[10],Active
same,Activity,[16],inactive
CCN(CC)CCCNc1cc(C)nc(Nc2nc(C)c3ccc4c(c3n2)CCCC4)n1,ΔTm,[1],10 °C
same,ΔTm,[2],7 °C
same,Activity,[3],Active
same,Activity,[4],inactive
same,Activity,[5],Active
same,Activity,[6],Active
same,Activity,[8],Active
same,Activity,[9],inactive
same,Activity,[10],Active
same,Kd,[11],0.23 µM
same,ΔTm,[12],7 °C
same,Activity,[13],inactive
same,Activity,[14],inactive
same,Activity,[16],inactive
same,Activity,[17],Active
same,Activity,[18],Active
Cc1cc(N2CCN(C(=O)OC(C)(C)C)CC2)nc(Nc2nc(C)c3ccc4c(c3n2)CCC4)n1,Activity,[19],inactive
same,Activity,[10],inactive
same,Activity,[16],inactive
CCN(CC)c1cc(C)nc(Nc2nc(C)c3ccc4c(c3n2)CCC4)n1,Activity,[16],inactive
CCN(CC)CCCCCNc1cc(C)nc(Nc2nc(C)c3ccc4c(c3n2)CCCC4)n1,Activity,[10],Active
Cc1cc(NCCCN2CCCCC2)nc(Nc2nc(C)c3ccc4c(c3n2)CCCC4)n1,ΔTm,[1],10 °C
same,ΔTm,[2],7 °C
same,Activity,[3],Active
same,Activity,[4],inactive
same,Activity,[5],Active
same,Activity,[6],Active
same,Activity,[8],Active
same,Activity,[9],inactive
same,Activity,[10],Active
same,Kd,[11],0.175 µM
same,ΔTm,[12],5 °C
same,Activity,[13],inactive
same,Activity,[14],inactive
same,Activity,[16],inactive
same,Activity,[17],Active
same,Activity,[18],Active
Cc1cc(N2CCN(C(=O)OC(C)(C)C)CC2)nc(Nc2nc(C)c3ccc4c(c3n2)CCCC4)n1,Activity,[19],inactive
same,Activity,[10],inactive
same,Activity,[16],inactive
Cc1cc(NCCCN2CCCC2)nc(Nc2nc(C)c3ccc4c(c3n2)CCC4)n1,ΔTm,[1],10 °C
same,ΔTm,[2],7 °C
same,Activity,[3],Active
same,Activity,[4],inactive
same,Activity,[5],Active
same,Activity,[6],Active
same,IC50 at 5 days,[7],2.52 µM
same,Activity,[8],Active
same,Activity,[9],inactive
same,Activity,[10],Active
same,Kd,[11],0.275 µM
same,ΔTm,[12],5 °C
same,Activity,[13],inactive
same,Activity,[14],inactive
same,IC50,[15],0.161 µM
same,Activity,[16],inactive
same,Activity,[17],Active
same,Activity,[18],Active
Cc1cc(N2CCOCC2)nc(Nc2nc(C)c3ccc4c(c3n2)CCCC4)n1,Activity,[16],inactive
Cc1cc(NCCCN2CCCCC2)nc(Nc2nc(C)c3ccc4c(c3n2)CCC4)n1,ΔTm,[1],10 °C
same,ΔTm,[2],7 °C
same,Activity,[3],Active
same,Activity,[4],inactive
same,Activity,[5],Active
same,Activity,[6],Active
same,IC50 at 5 days,[7],> 0.5 µM
same,Activity,[8],Active
same,Activity,[9],inactive
same,Activity,[10],Active
same,Kd,[11],0.285 µM
same,ΔTm,[12],4 °C
same,Activity,[13],inactive
same,Activity,[14],inactive
same,IC50,[15],0.793 µM
same,Activity,[16],inactive
same,Activity,[17],Active
same,Activity,[18],Active
CCOC(=O)CCN1CCN(c2cc(C)nc(Nc3nc(C)c4ccc5c(c4n3)CCCC5)n2)CC1,Activity,[19],inactive
same,Activity,[10],inactive
same,Activity,[16],inactive
Cc1cc(NCCN2CCN(C)CC2)nc(Nc2nc(C)c3ccc4c(c3n2)CCCC4)n1,Activity,[19],Active
same,Activity,[10],Active
same,Activity,[16],inactive
Cc1cc(NCCN2CCOCC2)nc(Nc2nc(C)c3ccc4c(c3n2)CCC4)n1,Activity,[16],inactive
Cc1cc(NCCN2CCN(C)CC2)nc(Nc2nc(C)c3ccc4c(c3n2)CCC4)n1,IC50 at 5 days,[7],> 0.5 µM
same,Activity,[19],Active
same,Activity,[10],Active
same,IC50,[15],0.547 µM
same,Activity,[16],inactive
CCN(CC)CCNc1cc(C)nc(Nc2nc(C)c3ccc4c(c3n2)CCCC4)n1,Activity,[10],Active
same,Activity,[16],inactive
Cc1cc(N2CCN(c3ncccn3)CC2)nc(Nc2nc(C)c3ccc4c(c3n2)CCCC4)n1,Activity,[19],inactive
same,Activity,[10],inactive
same,Activity,[16],inactive
Cc1cc(NCCN2CCNCC2)nc(Nc2nc(C)c3ccc4c(c3n2)CCCC4)n1,Activity,[10],Active
same,Activity,[16],inactive
Cc1cc(NCCCN2CCCC2)nc(Nc2nc(C)c3ccc4c(c3n2)CCCC4)n1,ΔTm,[1],10 °C
same,ΔTm,[2],7 °C
same,Activity,[3],Active
same,Activity,[4],inactive
same,Activity,[5],Active
same,Activity,[6],Active
same,Activity,[8],Active
same,Activity,[9],inactive
same,Activity,[10],Active
same,Kd,[11],0.245 µM
same,ΔTm,[12],8 °C
same,Activity,[13],inactive
same,Activity,[14],inactive
same,Activity,[16],inactive
same,Activity,[17],Active
same,Activity,[18],Active
Cc1cc(NCCCN2CCN(C)CC2)nc(Nc2nc(C)c3ccc4c(c3n2)CCCC4)n1,ΔTm,[1],10 °C
same,ΔTm,[2],7 °C
same,Activity,[3],Active
same,Activity,[4],inactive
same,Activity,[5],Active
same,Activity,[6],Active
same,Activity,[8],Active
same,Activity,[9],inactive
same,Activity,[10],Active
same,Kd,[11],0.28 µM
same,ΔTm,[12],6 °C
same,Activity,[13],inactive
same,Activity,[14],inactive
same,Activity,[16],inactive
same,Activity,[17],Active
same,Activity,[18],Active
CCOC(=O)CCN1CCN(c2cc(C)nc(Nc3nc(C)c4ccc5c(c4n3)CCC5)n2)CC1,Activity,[19],inactive
same,Activity,[10],inactive
same,Activity,[16],inactive
Cc1cc(N2CCN(c3ncccn3)CC2)nc(Nc2nc(C)c3ccc4c(c3n2)CCC4)n1,Activity,[19],inactive
same,Activity,[10],inactive
same,Activity,[16],inactive

# Reference: ChEMBL document CHEMBL5321208, “The effect of side chain variations on quinazoline-pyrimidine G-quadruplex DNA ligands” (Eur J Med Chem, 2023)
